According to US12448363B2, “Kinase inhibitors” (Vidya Therapeutics, Inc., priority 2020, dated 2025):

Tests used:
BTK = BTK (Homo sapiens, UniProt Q06187); assay: Assay to determine activity against BTK (EZ reader, FLPeptide); type: biochemical; design: purchased Carna; details: ATP (1 mM), BTK (2 nM), room temperature for 90 minutes
Protocol: Solutions of compounds (test or control) in DMSO were prepared at the desired concentrations, and serially diluted to 11 concentrations by 3-fold dilution in 384pp-plate using TECAN EVO200. 20 nL of stock were transferred to 384 plate using Echo550. DMSO was used as vehicle control.
Two separate solutions were prepared—an ATP solution containing MgCl2 (10 mM), Brij-35 (0.01%), DTT (2 mM), BSA (0.05%), EGTA (1 mM), HEPE (pH7.5) (50 mM), FLPeptide (6 uM) and ATP (4 mM); and a BTK solution containing MgCl2 (10 mM), Brij-35 (0.01%), DTT (2 mM), BSA (0.05%), EGTA (1 mM), HEPE (pH7.5) (50 mM) and BTK (2.67 nM). […] (Note the final volume of each well was 20 uL containing MgCl2 (10 mM), Brij-35 (0.01%), DTT (2 mM), BSA (0.05%), EGTA (1 mM), HEPE (pH7.5) (50 mM), FLPeptide (1.5 uM), ATP (1 mM) and BTK (2 nM).
The plates were incubated at room temperature for 90 minutes and then stopping buffer added (75 uL, containing 0.5 M EDTA) to terminate the reaction. Samples from each well were analyzed using EZ reader. The % remaining activity was calculated using read conversion ratio (CR) according to the equation: […]
XLFit (equation 201) was used to calculate IC50s by floating both bottom and top.
With respect to BTK activity, Table 4 lists activity as follows: • “A” denotes an IC50 of less than 10 nM, • “B” denotes an IC50 of from 10 nM to less than 100 nM; and • “C” denotes and IC50 of 100 nM or more.

[1] = tested on: BTK Activity in RAMOS B Cells; assay: Assay to determine BTK activity in RAMOS B cells (anti-IgM, FLIPR Calcium 6); type: cell-based; details: EC80 anti-IgM, FLIPR calcium read
Protocol: On the day before assay, Ramos B cells were plated in plating medium (RPMI1640 medium containing 1% FBS and 1× pencillin-streptomycin). On the day of the assay, 2× dye solution was prepared following the manual of the FLIRP Calcium 6 Assay Kit: Dilute the dye with assay buffer (20 mM HEPES in 1×HBSS, pH7.4); Add probenecid to the final concentration of 5 mM; vortex vigorously for 1-2 minutes. Cells were collected by centrifuging, and the pellet was resuspended in plating medium. After counting, cells were resuspended at a density of 3×10^6/ml in plating medium. Equal volume of 2× dye solution was added to the cell suspension. Cells were then plated at 20 μl/well into a 384-well poly-D-lysine coated plate. Plate was centrifuged at 1000 rpm for 3 minutes and then incubated at 37° C. for 2 hours followed by an additional 15-minute incubation at 25° C. Compounds were prepared at 3× concentration in dilution buffer (20 mM HEPES and 0.1% BSA in 1×HBSS, pH 7.4). Serially diluted compound was transferred from source plate to a 384-well compound plate by using an Echo 550 (Labcyte). 20 μl/well compound dilution buffer was added to the compound plate and mixed on plate shaker for 2 mins. 4×EC80 of Anti-IgM (Jackson ImmunoResearch) was prepared in dilution buffer and 20 μl/well was added to a new 384-well compound plate. After 60 mins of incubation at 25° C. in the dark; cell plate, compound plate containing 4×EC80 of anti-IgM and FLIPR tips were placed into FLIPR (Molecular Devices). 10 ul/well of 4×EC80 anti-IgM was transferred to the cell plate by FLIPR. Plates were read for 160 sec with 1 sec interval.
With respect to Ramos activity, Table 9 lists activity as follows: • “A” denotes an IC50 of less than 10 nM; • “B” denotes an IC50 of from 10 nM to less than 100 nM; and • “C” denotes and IC50 of 100 nM or more.

Sequence of BTK (Q06187 whole entry): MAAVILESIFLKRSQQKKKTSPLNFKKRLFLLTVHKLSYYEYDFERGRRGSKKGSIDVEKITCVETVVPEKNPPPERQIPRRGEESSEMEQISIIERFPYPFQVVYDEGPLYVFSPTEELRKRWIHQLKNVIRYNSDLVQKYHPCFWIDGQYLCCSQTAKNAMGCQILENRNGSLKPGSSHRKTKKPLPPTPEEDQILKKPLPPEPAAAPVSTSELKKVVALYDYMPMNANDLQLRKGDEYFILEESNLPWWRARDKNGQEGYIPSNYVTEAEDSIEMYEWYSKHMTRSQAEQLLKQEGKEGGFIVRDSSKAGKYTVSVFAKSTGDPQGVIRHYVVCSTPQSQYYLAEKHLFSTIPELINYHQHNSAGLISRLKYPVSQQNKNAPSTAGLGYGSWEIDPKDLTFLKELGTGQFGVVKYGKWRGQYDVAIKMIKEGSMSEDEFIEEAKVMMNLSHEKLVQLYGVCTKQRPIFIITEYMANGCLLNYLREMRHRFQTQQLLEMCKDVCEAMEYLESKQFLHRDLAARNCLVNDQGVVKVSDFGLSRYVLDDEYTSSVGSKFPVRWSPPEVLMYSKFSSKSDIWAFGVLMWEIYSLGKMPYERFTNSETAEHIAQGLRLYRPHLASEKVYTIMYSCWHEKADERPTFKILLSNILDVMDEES

Structure (SMILES)	IC50 (BTK) [nM]	IC50 [1] [nM]	IC50 ([1]; Homo sapiens, Ramos) [nM]
C=CC(=O)N1CCC=C(c2c(F)c(F)c(C(N)=O)c3[nH]c(C)c(C#N)c23)C1 [Compound 5, 4-(1-acryloyl-1,2,5,6-tetrahydropyridin-3-yl)-3-cyano-5,6-difluoro-2-methyl-1H-indole-7-carboxamide]	< 10	–	10 to 100
CC#CC(=O)N1CCC=C(c2c(F)cc(C(N)=O)c3[nH]c(C)c(Cl)c23)C1 [Compound 19, 4-(1-(but-2-ynoyl)-1,2,5,6-tetrahydropyridin-3-yl)-3-chloro-5-fluoro-2-methyl-1H-indole-7-carboxamide]	≥ 100	–	≥ 100
C=CC(=O)N1CCCC(c2c(F)c(F)c(C(N)=O)c3[nH]c(C)c(F)c23)C1 (stereo not shown) [Compound 13, 4-(1-acryloylpiperidin-3-yl)-3,5,6-trifluoro-2-methyl-1H-indole-7-carboxamide]	< 10	–	< 10
C=CC(=O)N1CCc2c(cccc2-c2c(F)cc(C(N)=O)c3[nH]c(C)c(F)c23)C1 (atropisomer, axis not shown) [Compound 20f, (R)-4-(2-acryloyl-1,2,3,4-tetrahydroisoquinolin-5-yl)-3,5-difluoro-2-methyl-1H-indole-7-carboxamide]	≥ 100	≥ 100	–
C=CC(=O)N1CCc2c(cccc2-c2c(F)c(F)c(C(N)=O)c3[nH]c(C)c(Cl)c23)C1 (atropisomer, axis not shown) [Compound 21c, (S)-4-(2-acryloyl-1,2,3,4-tetrahydroisoquinolin-5-yl)-3-chloro-5,6-difluoro-2-methyl-1H-indole-7-carboxamide]	≥ 100	≥ 100	–
C=CC(=O)N1Cc2cccc(-c3c(F)cc(C(N)=O)c4[nH]c(C)c(Cl)c34)c2C2(CC2)C1 (single isomer, unassigned) [Compound 24d]	≥ 100	≥ 100	–
C=CC(=O)N1CCc2c(cccc2-c2c(F)cc(C(N)=O)c3[nH]c(C)c(C#N)c23)C1 (atropisomer, axis not shown) [Compound 20i, (R)-4-(2-acryloyl-1,2,3,4-tetrahydroisoquinolin-5-yl)-3-cyano-5-fluoro-2-methyl-1H-indole-7-carboxamide]	< 10	10 to 100	–
C=CC(=O)N1CCc2c(cccc2-c2c(F)cc(C(N)=O)c3[nH]c(C)c(C#N)c23)C1 (atropisomer, axis not shown) [Compound 20h, (S)-4-(2-acryloyl-1,2,3,4-tetrahydroisoquinolin-5-yl)-3-cyano-5-fluoro-2-methyl-1H-indole-7-carboxamide]	≥ 100	≥ 100	–
C=CC(=O)N1Cc2cccc(-c3c(F)cc(C(N)=O)c4[nH]c(C)c(Cl)c34)c2C2(CC2)C1 (single isomer, unassigned) [Compound 24c]	10 to 100	–	≥ 100
C=CC(=O)N1CCc2c(cccc2-c2c(F)cc(C(N)=O)c3[nH]c(C)c(F)c23)C1 (atropisomer, axis not shown) [Compound 20e, (S)-4-(2-acryloyl-1,2,3,4-tetrahydroisoquinolin-5-yl)-3,5-difluoro-2-methyl-1H-indole-7-carboxamide]	< 10	< 10	–
C=CC(=O)N1CCCC(c2c(F)c(F)c(C(N)=O)c3[nH]c(C)c(C#N)c23)C1 (stereo not shown) [Compound 10, 4-(1-acryloylpiperidin-3-yl)-3-cyano-5,6-difluoro-2-methyl-1H-indole-7-carboxamide]	10 to 100	–	10 to 100
C=CC(=O)N1Cc2cccc(-c3c(F)cc(C(N)=O)c4[nH]c(C)c(Cl)c34)c2C2(CC2)C1 [Compound 24a, 4-(2′-Acryloyl-2′,3′-dihydro-1′H-spiro[cyclopropane-1,4′-isoquinolin]-5′-yl)-3-chloro-5-fluoro-2-methyl-1H-indole-7-carboxamide]	10 to 100	–	≥ 100

Second part, the compound after the results:

IC50 (BTK) [nM]	IC50 [1] [nM]	IC50 ([1]; Homo sapiens, Ramos) [nM]	Structure (SMILES)
10 to 100	≥ 100	–	C=CC(=O)N1CCCc2c(cccc2-c2c(F)cc(C(N)=O)c3[nH]c(C)c(Cl)c23)C1 (single isomer, unassigned) [Compound 25d]
≥ 100	–	≥ 100	C=CC(=O)N1CCC[C@@H](c2c(F)cc(C(N)=O)c3[nH]c(C)c(C(F)F)c23)C1 [Compound 12, (S)-4-(1-acryloylpiperidin-3-yl)-3-(difluoromethyl)-5-fluoro-2-methyl-1H-indole-7-carboxamide]
< 10	–	< 10	C=CC(=O)N1CCCC(c2c(F)cc(C(N)=O)c3[nH]c(C)c(Cl)c23)C1 (stereo not shown) [Compound 2, 4-(1-acryloylpiperidin-3-yl)-3-chloro-5-fluoro-2-methyl-1H-indole-7-carboxamide]
≥ 100	–	≥ 100	CC#CC(=O)N1CCC[C@@H](c2c(F)cc(C(N)=O)c3[nH]c(C)c(Cl)c23)C1 [Compound 18, (S)-4-(1-(but-2-ynoyl)piperidin-3-yl)-3-chloro-5-fluoro-2-methyl-1H-indole-7-carboxamide]
10 to 100	–	10 to 100	C=CC(=O)N[C@H]1CN(c2c(F)cc(C(N)=O)c3[nH]c(C)c(C)c23)CC[C@H]1F [Compound 31, 4-((3S,4R)-3-acrylamido-4-fluoropiperidin-1-yl)-5-fluoro-2,3-dimethyl-1H-indole-7-carboxamide]
≥ 100	≥ 100	–	C=CC(=O)N1CCc2c(cccc2-c2c(F)cc(C(N)=O)c3[nH]c(C)c(Cl)c23)C1 (single isomer, unassigned) [Compound 20c]
10 to 100	–	≥ 100	C=CC(=O)N[C@H]1C[C@@H](F)CN(c2c(F)cc(C(N)=O)c3[nH]c(C)c(C)c23)C1 [Compound 34, 4-((3S,5R)-3-acrylamido-5-fluoropiperidin-1-yl)-5-fluoro-2,3-dimethyl-1H-indole-7-carboxamide]
< 10	–	< 10	C#CC(=O)N1CCC[C@@H](c2c(F)cc(C(N)=O)c3[nH]c(C)c(Cl)c23)C1 [Compound 8, (S)-3-chloro-5-fluoro-2-methyl-4-(1-propioloylpiperidin-3-yl)-1H-indole-7-carboxamide]
≥ 100	≥ 100	–	C=CC(=O)N1CCc2c(-c3c(F)cc(C(N)=O)c4[nH]c(C)c(Cl)c34)cccc2[C@H]1C (single isomer, unassigned) [Compound 22b]
< 10	10 to 100	–	C=CC(=O)N1CCC2CCN(c3c(F)cc(C(N)=O)c4[nH]c(C)c(Cl)c34)CC21 (single isomer, unassigned) [Compound 29b, 4-(1-acryloyloctahydro-6H-pyrrolo[2,3-c]pyridin-6-yl)-3-chloro-5-fluoro-2-methyl-1H-indole-7-carboxamide]
10 to 100	–	10 to 100	C=CC(=O)N1CCCc2c(cccc2-c2c(F)cc(C(N)=O)c3[nH]c(C)c(Cl)c23)C1 [Compound 25a, 4-(2-Acryloyl-2,3,4,5-tetrahydro-1H-benzo[c]azepin-6-yl)-3-chloro-5-fluoro-2-methyl-1H-indole-7-carboxamide]
